Reference: patent US4125607A, “Daunosaminyl anthracyclinones and their use” (Societa' Farmaceutici Italia S.p.A., priority 1975, dated 1978)
Values after ≈ are worked out from the molar mass of the structure shown. Read-outs that look alike come from different tables or passages of the source.

Tests used:
L1210 leukemia = test: Activity on L1210 leukemia in BDF1 mice (Table 4); format: in vivo
Experimental: |Activity on L1210 leukemia |BDF1 mice were injected ip with 10^5 ascites |cells on Day 0 and treated ip on Day 1.

P 388 leukemia = test: Activity on P 388 leukemia in BDF1 mice (Table 3); format: in vivo
Excerpt: ^2 BDF1 mice received 10^6 ascites cells ip on Day 0 - Treatment

HeLa cells = test: Inhibition of colony forming ability of cultured HeLa cells in vitro; format: cell-based; details: for IC50: Homo sapiens, read-out: ID50 (50% inhibiting dose)
Excerpt: Biological activity on cultured HeLa cells. Data
are expressed as 50% inhibiting dose (ng/ml) at
different times of exposure.

Gross leukemia = test: Activity on Gross leukemia in C3H/Hc mice (Table 3); format: in vivo
Excerpt: ^3 C3H/Hc mice received 2×10^6 leukemic cells iv on Day 0 -
Treatment iv on Days 1, 2, 3.

L 1210 leukemia = test: Activity on L 1210 leukemia in BDF1 mice (Table 3); format: in vivo
Excerpt: ^1 BDF1 mice received 10^5 ascites cells ip on Day 0 - Treatment

Sarcoma 180 ascites = test: Antitumor activity in mice bearing Sarcoma 180 ascites, single ip treatment on day 1; format: in vivo; details: for LTS (long term survivors) / T/C % (survival time as percentage of controls) / TOX (toxic deaths): single ip on day 1
Excerpt: Antitumor activity in mice bearing Sarcoma 180 ascites;
single intraperitoneal treatment on day 1. The results
are expressed as the time of survival of treated animals
as a percentage of the controls (T/C %), the number of
long term survivors (LTS) and toxic deaths (TOX).

Cc1cc2c(cc1C)C(=O)c1c(O)c3c(c(O)c1C2=O)CC(O)(C(=O)CO)CC3OC1CC(N)C(O)C(C)O1 (stereo not shown) [2,3-Dimethyl-4-demethoxy-adriamycin, 4-demethoxy-2,3-dimethyladriamycin]
T/C % (L1210 leukemia; L1210, 1.9 mg/kg ip on Day 1): 152%
T/C % (L1210 leukemia; L1210, 2.9 mg/kg ip on Day 1): 152%
LTS (L1210 leukemia; L1210, 4.4 mg/kg ip on Day 1): 1/10
T/C % (L1210 leukemia; L1210, 4.4 mg/kg ip on Day 1): 170%

CC1OC(OC2CC(O)(C(=O)CO)Cc3c(O)c4c(c(O)c32)C(=O)c2ccccc2C4=O)CC(N)C1O (stereo not shown) [4-demethoxyadriamycin]
T/C % (P 388 leukemia; P 388, 0.25 mg/kg ip on Day 1): 168%
T/C % (P 388 leukemia; P 388, 0.5 mg/kg ip on Day 1): 195%
T/C % (P 388 leukemia; P 388, 1 mg/kg ip on Day 1): 209%
Tox (P 388 leukemia; P 388, 1 mg/kg ip on Day 1): 2/10
Activity relative to adriamycin (inhibition of colony forming ability) (HeLa cells; HeLa cells in vitro, from Table 1): about one hundred times more active than adriamycin
IC50 (HeLa cells; HeLa cells, 2 hrs. exposure): 1.5 ng/mL (≈ 0.00292 µM)
IC50 (HeLa cells; HeLa cells, 8 hrs. exposure): 0.34 ng/mL (≈ 0.000662 µM)
IC50 (HeLa cells; HeLa cells, 24 hrs. exposure): 0.14 ng/mL (≈ 0.000273 µM)
T/C % (Gross leukemia; 0.35 mg/kg iv on Days 1, 2, 3): 228%
Tox (Gross leukemia; 0.35 mg/kg iv on Days 1, 2, 3): 1/10
T/C % (Gross leukemia; 0.45 mg/kg iv on Days 1, 2, 3): 214%
Tox (Gross leukemia; 0.45 mg/kg iv on Days 1, 2, 3): 1/10
T/C % (Gross leukemia; 0.6 mg/kg iv on Days 1, 2, 3): 157%
Tox (Gross leukemia; 0.6 mg/kg iv on Days 1, 2, 3): 8/10
T/C % (L 1210 leukemia; L 1210, 0.25 mg/kg ip on Day 1): 155%
T/C % (L 1210 leukemia; L 1210, 0.5 mg/kg ip on Day 1): 166%
T/C % (L 1210 leukemia; L 1210, 1 mg/kg ip on Day 1): 133%
Tox (L 1210 leukemia; L 1210, 1 mg/kg ip on Day 1): 10/10
LTS (long term survivors) (Sarcoma 180 ascites; 0.25 mg/kg): 7/10
T/C % (survival time as percentage of controls) (Sarcoma 180 ascites; 0.25 mg/kg): above 583%
LTS (long term survivors) (Sarcoma 180 ascites; 0.5 mg/kg): 6/10
T/C % (survival time as percentage of controls) (Sarcoma 180 ascites; 0.5 mg/kg): above 583%
T/C % (survival time as percentage of controls) (Sarcoma 180 ascites; 1.0 mg/kg): 218%
TOX (toxic deaths) (Sarcoma 180 ascites; 1.0 mg/kg): 6/9
Activity relative to adriamycin (Sarcoma 180 ascites; Sarcoma 180 ascites, from Table 2): at least ten times more active than adriamycin

COc1cccc2c1C(=O)c1c(O)c3c(c(O)c1C2=O)C[C@@](O)(C(=O)CO)C[C@@H]3O[C@H]1C[C@H](N)[C@H](O)[C@H](C)O1 [Adriamycin]
T/C % (P 388 leukemia; P 388, 2.5 mg/kg ip on Day 1): 173%
T/C % (P 388 leukemia; P 388, 5 mg/kg ip on Day 1): 218%
T/C % (P 388 leukemia; P 388, 10 mg/kg ip on Day 1): 230%
Tox (P 388 leukemia; P 388, 10 mg/kg ip on Day 1): 1/10
IC50 (HeLa cells; HeLa, 2 h): 125 ng/mL (≈ 0.23 µM)
IC50 (HeLa cells; HeLa, 8 h): 28 ng/mL (≈ 0.0515 µM)
IC50 (HeLa cells; HeLa, 24 h): 12.5 ng/mL (≈ 0.023 µM)
T/C % (Gross leukemia; 3.5 mg/kg iv on Days 1, 2, 3): 164%
T/C % (Gross leukemia; 4.4 mg/kg iv on Days 1, 2, 3): 186%
T/C % (Gross leukemia; 6.0 mg/kg iv on Days 1, 2, 3): 214%
Tox (Gross leukemia; 6.0 mg/kg iv on Days 1, 2, 3): 3/10
T/C % (L1210 leukemia; L1210, 2.9 mg/kg ip on Day 1): 141%
LTS (L1210 leukemia; L1210, 4.4 mg/kg ip on Day 1): 1/10
T/C % (L1210 leukemia; L1210, 4.4 mg/kg ip on Day 1): 152%
T/C % (L1210 leukemia; L1210, 6.6 mg/kg ip on Day 1): 158%
LTS (L1210 leukemia; L1210, 10 mg/kg ip on Day 1): 1/10
T/C % (L1210 leukemia; L1210, 10 mg/kg ip on Day 1): 164%
T/C % (L 1210 leukemia; L 1210, 2.5 mg/kg ip on Day 1): 155%
T/C % (L 1210 leukemia; L 1210, 5 mg/kg ip on Day 1): 166%
Tox (L 1210 leukemia; L 1210, 5 mg/kg ip on Day 1): 1/10
T/C % (L 1210 leukemia; L1210, 10 mg/kg ip on Day 1): 155%
Tox (L 1210 leukemia; L1210, 10 mg/kg ip on Day 1): 4/10
LTS (long term survivors) (Sarcoma 180 ascites; 2.5 mg/kg): 7/10
T/C % (survival time as percentage of controls) (Sarcoma 180 ascites; 2.5 mg/kg): above 583%
LTS (long term survivors) (Sarcoma 180 ascites; 5.0 mg/kg): 2/10
T/C % (survival time as percentage of controls) (Sarcoma 180 ascites; 5.0 mg/kg): 211%
TOX (toxic deaths) (Sarcoma 180 ascites; 5.0 mg/kg): 3/9
T/C % (survival time as percentage of controls) (Sarcoma 180 ascites; 10.0 mg/kg): 163%
TOX (toxic deaths) (Sarcoma 180 ascites; 10.0 mg/kg): 4/10
